Experimental data from patent US12318484B2 (priority 2016, dated 2025).

Tested on: IL-1B, IL-8, TLR7 and TLR8 mRNA
Format: cell-based, ferrets
Details: 100 μM, ferret whole blood

CL075
IL-1B, IL-8, TLR7 and TLR8 mRNA: significant increases
